For data set [1], the target named is T1, Peroxisome proliferator-activated receptor gamma (Homo sapiens, UniProt P37231).
T1 sequence (P37231 whole entry): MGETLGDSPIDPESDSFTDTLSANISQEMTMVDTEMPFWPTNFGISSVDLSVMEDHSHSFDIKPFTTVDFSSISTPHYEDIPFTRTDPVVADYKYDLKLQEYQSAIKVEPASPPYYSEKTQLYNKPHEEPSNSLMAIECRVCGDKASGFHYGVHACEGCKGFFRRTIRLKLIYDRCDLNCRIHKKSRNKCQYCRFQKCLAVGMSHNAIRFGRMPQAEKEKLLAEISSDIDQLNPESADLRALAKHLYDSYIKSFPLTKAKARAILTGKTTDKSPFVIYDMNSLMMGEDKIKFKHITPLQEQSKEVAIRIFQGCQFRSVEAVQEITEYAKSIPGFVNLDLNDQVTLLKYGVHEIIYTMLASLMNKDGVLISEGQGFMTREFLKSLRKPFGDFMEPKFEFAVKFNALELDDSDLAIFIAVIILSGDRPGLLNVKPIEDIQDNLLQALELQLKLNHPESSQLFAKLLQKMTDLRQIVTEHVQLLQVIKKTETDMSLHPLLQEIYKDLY
Description: Transactivation of PPARgamma in CV1 cells

Data set [2] deals with HT-29. In words: Antiproliferative activity against human HT29 cell line. Format: functional, cell-based.
Data set [3] deals with MCF7. Nature of the data set: Antiproliferative activity against human MCF7 cell line. Format: functional, cell-based.
Data set [4] relates to 3T3-L1. Nature of the data set: Induction of adipogenesis in mouse 3T3 L1 preadipocytes. The data set is classed as functional, cell-based.
Data set [5] has as its target T2, Peroxisome proliferator-activated receptor gamma (Homo sapiens) (UniProt P37231).
T2 sequence (whole entry): T1 sequence (P37231 whole entry)
Nature of the data set: Transactivation of PPARgamma at 10 uM in CV1 cells. The data set is classed as functional, cell-based. Conditions: CV-1.

Data set [6] relates to T-cell. Nature of the data set: Inhibition of PHA/PMA-induced IL2 production in human T lymphocytes at 10 uM. Format: functional, cell-based.
Data set [7] relates to T-cell. Nature of the data set: Inhibition of PHA/PMA-induced IL2 production in human T lymphocytes. The data set is classed as functional.
Data set [8] deals with Keratinocyte. In words: Antiproliferative activity against human keratinocytes. The data set is classed as functional, cell-based.
The target in data set [9] is T2, Peroxisome proliferator-activated receptor gamma (Homo sapiens). Nature of the data set: Transactivation of PPARgamma up to 30 uM in CV1 cells. Format: functional, cell-based. Conditions: CV-1.
Data set [10] can be described thus: Solubility in water. Format: physicochemical.
For data set [11], the system named is Rattus norvegicus. In words: Reduction in triglycerides level in Zucker fa/fa rat at 100 mg/kg relative to control. Format: functional. Details: scale not given: the % may be the effect or the level left.
Data set [12] deals with Rattus norvegicus. Nature of the data set: Reduction in glucose level in Zucker fa/fa rat at 100 mg/kg relative to control. Format: functional.

pEC50, pIC50: −log10 of the molar value. Values after ≈ are worked out from the molar mass of the structure shown. Values joined by “and” are separate entries in the source; they are usually repeats but may differ in a detail not shown here. Identical values can stand only once. Active and inactive are the calls of the source. The rule behind the calls is not given here.

`CN(CCCCC1CCSS1)CCOc1ccc(CC2SC(=O)NC2=O)cc1` (stereo unspecified) [listing 1 of 3 here] gave a pEC50 in [1] of 4.96.

Regarding `CN(CCOc1ccc(CC2SC(=O)NC2=O)cc1)C(=O)CCCCC(CCSC(=O)CN)SC(=O)CN.Cl.Cl` (stereo unspecified), the negative logarithm of the IC50 (pIC50) in [2] is 5.10; in data set [3] it was 4.60; in data set [8], 6.00. Also, the negative logarithm of the EC50 (pEC50) in data set [1] was 7.22. Moreover, the result in data set [4] and in data set [6] was Active. The molecule also gave an Activity in data set [5] of 71. For the same molecule, the Inhibition in data set [7] is 92%.

In [1], `CC(=O)SC(CCCCC(=O)N(C)CCOc1ccc(CC2SC(=O)NC2=O)cc1)CCSC(=O)CCC(=O)O` (stereo unspecified) showed a negative logarithm of the EC50 (pEC50) of 6.82. In [5], this molecule displayed an Activity of 168.

For `CN(CCOc1ccc(CC2SC(=O)NC2=O)cc1)c1ccccn1` (stereo unspecified) [ROSIGLITAZONE], the values for the pIC50 in data set [2], in data set [3] and in [8] were 4.35, under 4.30 and 5.10, respectively. The Inhibition in [7] was determined as 75%.

Take `CC(=O)SCCC(CCCCC(=O)N(C)CCOc1ccc(CC2SC(=O)NC2=O)cc1)SC(C)=O` (stereo unspecified): the pEC50 in data set [1] was 7.41. The molecule also gave an Activity in [5] of 150.

The molecule `CN(CCOc1ccc(CC2SC(=O)NC2=O)cc1)C(=O)CCCCC(S)CCSC(=O)CCC(=O)O` (stereo unspecified) had a pEC50 in [1] of 7.70. In addition, the Activity in [5] was 177.

`CN(CCCOc1ccc(CC(=O)O)cc1Cl)C(=O)CCCCC1CCSS1` (stereo unspecified) showed a pEC50 in data set [1] of 4.91.

As to `COC(=O)Cc1ccc(OCCCN(C)C(=O)CCCCC2CCSS2)c(Cl)c1` (stereo unspecified), in [1], the negative-log EC50 (pEC50) was 4.73.

In the case of `CN(C(=O)CCCCC1CCSS1)c1ccc(CC2SC(=O)NC2=O)cc1` (stereo unspecified), the outcome in data set [9] was inactive.

Turning to `CN(CCOc1ccc(CC2SC(=O)NC2=O)cc1)C(=O)CCC1CCSS1` (stereo unspecified), in data set [9], the result was inactive.

`CN(CCOc1ccc(CC2SC(=O)NC2=O)cc1)C(=O)CCCCC(CCSC(=O)CCC(=O)O)SC(=O)CCC(=O)O` (stereo unspecified): in [1], the pEC50 is 7.10. In data set [5], this molecule displayed an Activity of 60.

As to `CN(CCOc1ccc(CC2SC(=O)NC2=O)cc1)C(=O)CCCCC1CCSS1` (stereo unspecified), the negative logarithm of the IC50 (pIC50) was 5.00 in data set [2], 4.82 in [3] and 6.22 in data set [8]. In [1], this molecule gave a pEC50 of 7.82. For the same molecule, the result in [4] and in data set [6] was Active. In addition, the Inhibition in data set [7] was 92%. Moreover, in data set [10], the concentration in solution (solubility) was 39 µg/mL (≈ 83.2 µM). The Activity was 83% and 54 mg/dl in [11]; 180 mg/dL in [12].

In data set [1], `CN(CCCCC1CCSS1)CCOc1ccc(CC2SC(=O)NC2=O)cc1` (stereo unspecified) [listing 2 of 3 here] showed a pEC50 of 4.55.

As for `CN(CCCCC1CCSS1)CCOc1ccc(CC2SC(=O)NC2=O)cc1` (stereo unspecified) [listing 3 of 3 here], the pEC50 in data set [1] was 4.96.

The molecule `CN(CCOc1ccc(CC2SC(=O)NC2=O)cc1)C(=O)CCCCC(S)CCS` (stereo unspecified) showed a pEC50 in data set [1] of 7.12. This molecule also displayed an Activity in [5] of 129. Further, in [6], the outcome was Active. This molecule also gave an Inhibition in [7] of 80%.

`COC(=O)Cc1ccc(OCCN(C)C(=O)CCCCC2CCSS2)c(Cl)c1` (stereo unspecified): the outcome in data set [9] was inactive.

In turn, `O=C(CCCCC1CCSS1)NCCOc1ccc(CC2SC(=O)NC2=O)cc1` (stereo unspecified) showed a negative-log EC50 (pEC50) in data set [1] of 5.00.

As to `CN(CCOc1ccc(CC(=O)O)cc1Cl)C(=O)CCCCC1CCSS1` (stereo unspecified), in [9], the outcome was inactive.

For the molecule `CC(=O)SC(CCCCC(=O)N(C)CCOc1ccc(CC2SC(=O)NC2=O)cc1)CCSC(=O)CN` (stereo unspecified), the negative-log EC50 (pEC50) in [1] was 6.71. Also, the Activity in data set [5] is 138.

Usually pEC50 stands for −log10 of the EC50, conventionally taken in molar units. One may read the pIC50 as the negative decadic logarithm of the IC50, by convention in mol/L. In general, Inhibition refers to the share of the control response that was lost under treatment. As a reminder, the solubility is how much of the substance goes into solution per volume.
